# Patent publication US11884675B2, “Heterocyclic compounds as triggering receptor expressed on myeloid cells 2 agonists and methods of use” (AMGEN INC., priority 2020, dated 2024)
# pEC50: −log10 of the molar value.
# Biological target: hTREM2 (Homo sapiens, UniProt Q9NZC2)
# Assay: TREM2 activity by cellular Syk phosphorylation (AlphaScreen/AlphaLISA) in TREM2/DAP12-HEK cells, used for Examples 1-305
# Format: cell-based
# Design: expressed in transfected cells
# Conditions: HEK293 Cells
# How it was run: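 Phospho-Syk (Tyr525/526) over total Syk quantified by AlphaScreen in lysates of cloned TREM2/DAP12-overexpressing HEK293 cells after 45 min compound treatment at room temperature, 1% final DMSO. Values expressed relative to 100 nM anti-TREM2 antibody (positive) and isotype IgG (negative) controls; curves fitted with 4-parameter logistic model.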
# hTREM2, sequence (Q9NZC2 19-230): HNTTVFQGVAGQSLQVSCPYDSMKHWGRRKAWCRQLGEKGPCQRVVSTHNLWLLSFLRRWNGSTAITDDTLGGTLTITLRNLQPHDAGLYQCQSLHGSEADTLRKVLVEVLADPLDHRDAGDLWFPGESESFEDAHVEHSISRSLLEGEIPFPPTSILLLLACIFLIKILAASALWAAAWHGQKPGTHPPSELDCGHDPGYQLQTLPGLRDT
# hTREM2, sequence (O43914 22-113 partner): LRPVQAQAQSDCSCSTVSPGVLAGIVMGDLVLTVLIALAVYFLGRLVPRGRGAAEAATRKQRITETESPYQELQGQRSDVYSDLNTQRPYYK
SMILES,pEC50,hTREM2 Emax
"Cc1nc2nc([C@@H]3CCO[C@H](c4cnn(C5CC5)c4)C3)nc(-c3ccc(C(F)(F)F)nc3)c2nc1C [Example 301, 2-((2S,4R)-2-(1-cyclopropyl-1H-pyrazol-4-yl)tetrahydro-2H-pyran-4-yl)-6,7-dimethyl-4-(6-(trifluoromethyl)pyridin-3-yl)pteridine]",≥ 7.30,+++ (Emax>150 and ≤250)
"Cc1nc2nc(N3CCO[C@@H](c4cnn(C)c4)C3)nc(C3=CC[C@@H](C(F)(F)F)CC3)c2nc1C (single isomer, unassigned) [Example 127]",≥ 7.30,++ (Emax>100 and ≤150)
"Cc1ncc([C@@H]2CN(c3nc(-c4ccc(C(F)(F)F)nc4)c4nc(C)c(C)nc4n3)CCO2)cn1 [Example 295, (R)-4-(6,7-dimethyl-4-(6-(trifluoromethyl)pyridin-3-yl)pteridin-2-yl)-2-(2-methylpyrimidin-5-yl)morpholine]",≥ 7.30,+++ (Emax>150 and ≤250)
"Cc1ccc(-c2nc([C@@H]3CCO[C@@H](c4ccnc(C)c4)C3)nc3nc(C)c(C)nc23)c(F)c1 [Example 285, 4-(2-fluoro-4-methylphenyl)-6,7-dimethyl-2-((2R,4R)-2-(2-methylpyridin-4-yl)tetrahydro-2H-pyran-4-yl)pteridine]",6.30 to 7.30,++++ (Emax>250)
"Cc1nc2nc(N3CCO[C@H]([C@@H]4CCOC4)C3)nc(-c3ccc(F)cc3F)c2nc1C (single isomer, unassigned) [Example 35]",6.30 to 7.30,+++ (Emax>150 and ≤250)
"Cc1cnc2c(n1)nc(N1CCO[C@@H](c3cnn(C)c3)C1)nc2[C@H]1C[C@H](C(F)(F)F)C1 [Example 11, 7-methyl-2-((2S)-2-(1-methyl-1H-pyrazol-4-yl)-4-morpholinyl)-4-(trans-3-(trifluoromethyl)cyclobutyl)pteridine]",6.30 to 7.30,++ (Emax>100 and ≤150)
"Cc1nc2nc(N3CCO[C@@H](c4cnn(C)c4)C3)nc(N3CC(C(F)F)C3)c2nc1C [Example 269, (S)-4-(4-(3-(difluoromethyl)azetidin-1-yl)-6,7-dimethylpteridin-2-yl)-2-(1-methyl-1H-pyrazol-4-yl)morpholine]",4.00 to 5.52,+ (Emax>45 and ≤100)
"Cc1nc2nc(N3CCO[C@@H](c4cnn(C5CC5)c4)C3)nc(C3CC4(C3)CC(F)(F)C4)c2nc1C [Example 49, 2-((2S)-2-(1-cyclopropyl-1H-pyrazol-4-yl)-4-morpholinyl)-4-(6,6-difluorospiro[3.3]heptan-2-yl)-6,7-dimethylpteridine]",≥ 7.30,++ (Emax>100 and ≤150)
"Cc1nc2nc(N3CCO[C@H]([C@H]4CCOC4)C3)nc(-c3ccc(F)cc3F)c2nc1C (single isomer, unassigned) [Example 36]",6.30 to 7.30,+++ (Emax>150 and ≤250)
"COc1cc([C@H]2C[C@@H](c3nc(-c4ccc(Cl)cc4F)c4nc(C)c(C)nc4n3)CCO2)ccn1 (single isomer, unassigned) [Example 208]",≥ 7.30,+++ (Emax>150 and ≤250)
"Cc1nc2nc(N3CCO[C@@H](c4cnn(C5CC5)c4)C3)nc(C34CC(C(F)(F)F)(C3)C4)c2nc1C [Example 64, 2-((2S)-2-(1-cyclopropyl-1H-pyrazol-4-yl)-4-morpholinyl)-6,7-dimethyl-4-(3-(trifluoromethyl)bicyclo[1.1.1]pentan-1-yl)pteridine]",≥ 7.30,+++ (Emax>150 and ≤250)

# The remaining lines, values ahead:
pEC50,hTREM2 Emax,SMILES
5.52 to 6.30,+++ (Emax>150 and ≤250),"Cc1cnc2c(-c3ccc(Cl)cc3F)nc([C@@H]3CCO[C@H](c4cnn(C)c4)C3)cc2n1 [Example 248, 5-(4-chloro-2-fluorophenyl)-2-methyl-7-((2S,4R)-2-(1-methyl-1H-pyrazol-4-yl)tetrahydro-2H-pyran-4-yl)pyrido[3,4-b] pyrazine]"
6.30 to 7.30,++++ (Emax>250),"CN1Cc2c(cc(N3CCO[C@@H](c4cnn(C5CC5)c4)C3)nc2-c2ccc(Cl)cc2F)C1=O [Example 120, 4-(4-chloro-2-fluorophenyl)-6-((2S)-2-(1-cyclopropyl-1H-pyrazol-4-yl)-4-morpholinyl)-2-methyl-2,3-dihydro-1H-pyrrolo[3,4-c]pyridin-1-one]"
≥ 7.30,+++ (Emax>150 and ≤250),"Cc1ncc([C@H]2CN(c3nc(-c4ccc(Cl)cc4F)c4cc(C)c(C)nc4n3)CCO2)cn1 (single isomer, unassigned) [Example 107]"
5.52 to 6.30,+++ (Emax>150 and ≤250),"Cc1cc2c(-c3ccc(F)cc3F)nc([C@@H]3CCO[C@H](c4cnn(C)c4)C3)nc2nc1C (single isomer, unassigned) [Example 200]"
6.30 to 7.30,++++ (Emax>250),"Cc1cnc2c(-c3ccc(Cl)cc3F)nc(N3CCO[C@@H](c4cnn(C)c4)C3)cc2n1 [Example 73, 5-(4-chloro-2-fluorophenyl)-2-methyl-7-((2S)-2-(1-methyl-1H-pyrazol-4-yl)-4-morpholinyl)pyrido[3,4-b]pyrazine]"
5.52 to 6.30,+++ (Emax>150 and ≤250),"Cc1ccc(-c2cc([C@@H]3CCO[C@H](c4cnn(C)c4)C3)nc3nc(C)c(C)nc23)c(F)c1 (single isomer, unassigned) [Example 189]"
4.00 to 5.52,++ (Emax>100 and ≤150),"Cc1ccc2c(-c3ccc(F)cc3F)nc([C@H]3CCO[C@@H](c4cnn(C)c4)C3)nc2n1 [Example 289, 4-(2,4-difluorophenyl)-7-methyl-2-((2R,4S)-2-(1-methyl-1H-pyrazol-4-yl)tetrahydro-2H-pyran-4-yl)pyrido[2,3-d] pyrimidine]"
5.52 to 6.30,++ (Emax>100 and ≤150),"Cc1cc2c(-c3ccc(F)cc3F)nc([C@@H]3CCO[C@@H](c4cnn(C)c4)C3)nc2nc1C [Example 267, 4-(2,4-difluorophenyl)-6,7-dimethyl-2-((2R,4R)-2-(1-methyl-1H-pyrazol-4-yl)tetrahydro-2H-pyran-4-yl)pyrido[2,3-d]pyrimidine]"
5.52 to 6.30,++++ (Emax>250),"Cc1nc2cc([C@H]3CCO[C@H](c4cnn(C)c4)C3)nc(-c3ccc(Cl)cc3F)c2nc1C (single isomer, unassigned) [Example 194]"
5.52 to 6.30,++++ (Emax>250),"Cc1ccc(-c2cc([C@H]3CCO[C@H](c4cnn(C)c4)C3)nc3nc(C)c(C)nc23)c(F)c1 [Example 266, 8-(2-fluoro-4-methylphenyl)-2,3-dimethyl-6-((2S,4S)-2-(1-methyl-1H-pyrazol-4-yl)tetrahydro-2H-pyran-4-yl)pyrido[2,3-b]pyrazine]"
6.30 to 7.30,+++ (Emax>150 and ≤250),"Cc1ncc2c(-c3ccc(Cl)cc3F)cc(N3CCO[C@@H](c4cnn(C)c4)C3)cc2n1 [Example 153, 5-(4-chloro-2-fluorophenyl)-2-methyl-7-((2S)-2-(1-methyl-1H-pyrazol-4-yl)-4-morpholinyl) quinazoline]"
≥ 7.30,++++ (Emax>250),"Cc1ccc(-c2nc(N3CCO[C@@H](c4ccnc(C)c4)C3)nc3nc(C)ccc23)c(F)c1 [Example 96, 4-(2-fluoro-4-methylphenyl)-7-methyl-2-((2S)-2-(2-methyl-4-pyridinyl)-4-morpholinyl)pyrido[2,3-d]pyrimidine]"
